Measurements from patent publication US4202891A, “15-Oxygenated sterol compounds and the use of such compounds to inhibit the biosynthesis of sterols” (priority 1977, dated 1980).
Like-named read-outs stand apart in the source and are kept apart here.

What was measured:
[1] = test system: sterol biosynthesis in L cells; test: Inhibition of sterol synthesis from [1-14C]acetate in L cell cultures; assay type: cell-based; conditions: Mus musculus; for inhibition at 0.1 µM: read-out: inhibition of sterol synthesis
Procedure: (§1) The effect of various 15-oxygenated sterols on sterol biosynthesis in L cells and in primary cultures of mouse liver cells was tested essentially under conditions described in detail previously [A. A. Kandutsch and H. W. Chen, J. Biol. Chem., Vol. 248, pp. 8408-8417 (1973) and A. A. Kandutsch and H. W. Chen, J. Biol. Chem., Vol. 249, pp. 6057-6061 (1974`)].
(§2) The primary liver cell cultures were prepared from 16-day-old (C57BL/6J fetuses and grown in chemically defined medium (serum-free) as described in the above cited publications. The L cells, a subline of NCTC clone 929 mouse fibroblasts, were grown in chemically defined medium (serum-free) as described in the publications. These L cells are transformed fibroblasts which are regarded as malignant since they will grow as tumors if injected into the mouse strain from which they were initially obtained.
(§3) The preparation of steroid-containing media, procedures for assays of the conversion of [1-^14 C]acetate into digitonin-precipitable sterols, fatty acids, and CO2 and methods for the measurement of DNA, protein, and HMG-CoA reductase were as described in the published articles. L cell cultures were preincubated with the 15-oxygenated sterols and their derivatives for 4 hours, then [1-^14 C]acetate was added at a concentration of 4 μmoles per ml (4 μCi per ml); or the L cell cultures were incubated for 5 hours with the 15-oxygenated sterols before they were harvested for determination of microsomal HMG-CoA reductase activity.
(§4) The test compounds were tested over a range of at least 4 concentrations and the assay was repeated until the concentration of test compound required to produce 50% inhibition was located on the steeply declining portion of an activity vs. concentration plot. To diminish any possible effects of generalized differences in cellular metabolism, the rates of sterol synthesis from [1-^14 C]acetate were calculated as the ratio of [^14 C]sterols to [^14 C]fatty acids as described in the two cited articles by Kandutsch and Chen.

[2] = test system: sterol biosynthesis in primary cultures of mouse liver cells; test: Inhibition of sterol synthesis from [1-14C]acetate in primary cultures of liver cells; assay type: cell-based
Procedure: as §1, §2, §3
Conditions for incubating the 15-oxygenated sterols or their derivatives with liver cell cultures were similar to those described for L cell cultures except that the cultures were incubated with the test compounds for 12 hours before labeled acetate was added or before they were harvested for enzyme assay.
as §4

serum cholesterol = test: Effect on serum cholesterol levels in rats, daily subcutaneous injection (Examples 41, 42); assay type: in vivo, rat (male, Sprague-Dawley); conditions: Example 42; for Serum Cholesterol (Mean ± S.E.M.): 5 mg s.c. once a day in triolein
Procedure: Male rats of the Sprague-Dawley strain were fed Purina rat chow ad libidum. The rats were maintained on a light (7 A.M.-6 P.M.) -dark (6 P.M.-7 A.M.) cycle throughout the study and for a period of at least 4 days prior to the initiation of the study.
3β-Hexadecanoyloxy-5α-cholest-8(14)-en-15-one (5 mg; dissolved in 0.25 ml of triolein), hereafter referred to as the "palmitate ester", or 3β-hemisuccinoyloxy-5α-cholest-8(14)-en-15-one (5 mg; suspended in 0.25 ml of triolein through the use of a tight-fitting all-glass homogenizer), hereafter referred to as the "hemisuccinate ester", were administered subcutaneously once a day at about 12 P.M. to each of eight and six rats, respectively. Control animals (8) received daily injections of triolein (0.25 ml).
Blood samples were taken from the rats periodically and the serum cholesterol concentrations measured, in duplicate, by the method of Abell et al., J. Biol. Chem., Vol. 195, pp. 357-366 ([…]).
Following generally the procedure described in Example 41, 3β-Ethoxy-14α-ethyl-5α-cholest-7-en-15-one (5 mg) in triolein (0.25 ml) was administered subcutaneously once a day to each of eight rats. Control animals (8) received daily injections of triolein (0.25 ml).
Similarly, 5α-cholest-8(14)-en-3β-ol-15-one (2mg) in (0.2 ml) olive oil or 5.0 mg in 0.5 ml of olive oil) was administered subcutaneously once a day to each of a group of rats. The 2 mg dose was administered to 12 rats, while a like number of rats received daily injections of 0.2 ml olive oil. 5 mg doses were administered to each of 6 rats, while 6 control animals received daily injections of 0.5 ml olive oil. The rats used in this study initially weighed between 110 and 190 grams.

HMG-CoA reductase = test: Reduction of the activity of HMG-CoA reductase in L cell cultures; assay type: cell-based, mouse; conditions: read-out: Concentrations Required for 50% Reduction of the Activity of HMG-CoA Reductase
Procedure: as §2, §3
A number of the 15-oxygenated sterols have also been tested with respect to their effects on the activity and/or levels of the enzyme HMG-CoA reductase (3-hydroxy-3-methylglutaryl coenzyme A reductase) in the L cells and in the liver cells. As noted previously, this enzyme catalyzes the reduction of 3-hydroxy-3-methylglutaryl coenzyme A to yield mevalonic acid, an essential intermediate in the biosynthesis of sterols and of a number of other essential compounds in cells.
Using the technique described by Kandutsch and Chen in the article cited in the previous example, the concentrations of various 15-oxygenated sterols required to reduce the levels of activity of HMG-CoA reductase by 50% was determined in the cells of the L cells in culture and of the primary cultures of liver cells.

[3] = read-out: Concentrations Required for 50% Inhibition of Sterol Synthesis
[4] = read-out: concentration causing 50% inhibition of sterol synthesis

## CCCC[C@@]12C(=O)C[C@H]([C@H](C)CCCC(C)C)[C@@]1(C)CC[C@H]1C2=CC[C@H]2C[C@@H](O)CC[C@@]21C [14α-n-Butyl-5α-cholest-7-en-3β-ol-15-one, 14α-n-butyl-5α-cholest-7-en-3β-ol-15-one]
[1]; [3]
  IC50: 8.3 µM

## CCCCCCCCCCCCCCCC(=O)O[C@H]1CC[C@@]2(C)[C@@H](CC=C3[C@@H]2CC[C@]2(C)[C@@H]([C@H](C)CCCC(C)C)C[C@@H](O)[C@@]32CC)C1 [3β-hexadecanoyloxy-14α-ethyl-5α-cholest-7-en-15β-ol]
[1]; [3]
  IC50: > 15.1 µM

## CCC[C@]12C3=CC[C@H]4C[C@@H](O)CC[C@]4(C)[C@H]3CC[C@]1(C)[C@@H]([C@H](C)CCCC(C)C)C[C@@H]2O [14α-n-Propyl-5α-cholest-7-en-3β,15α-diol, 14α-n-propyl-5α-cholest-7-en-3β,15α-diol]
[1]; [3]
  IC50: 1.1 µM

## CC(C)CCC[C@@H](C)[C@H]1C[C@@H](O)[C@@H]2C3=CC[C@H]4CC(=O)CC[C@]4(C)[C@H]3CC[C@]12C [5α,14β-Cholest-7-en-15β-ol-3-one, 5α,14β-cholest-7-en-15β-ol-3-one]
[1]; [3]
  IC50: 0.25 µM

## CO[C@H]1CC[C@@]2(C)[C@@H](CC=C3[C@@H]2CC[C@]2(C)[C@@H]([C@H](C)CCCC(C)C)CC(=O)[C@@]32C)C1 [3β-methoxy-14α-methyl-5α-cholest-7-en-15-one]
[1]; [3]
  IC50: 20 µM

## CC[C@@]12C(=O)C[C@H]([C@H](C)CCCC(C)C)[C@@]1(C)CC[C@H]1C2=CC[C@H]2C[C@H](O)CC[C@@]21C [14α-Ethyl-5α-cholest-7-en-3α-ol-15-one, 14α-ethyl-5α-cholest-7-en-3α-ol-15-one]
[1]; [3]
  IC50: < 0.1 µM
[1]
  inhibition at 0.1 µM: ~100%

## CC(C)CCC[C@@H](C)[C@H]1C[C@H](O)C2=C3CC[C@H]4C[C@@H](O)CC[C@]4(C)[C@H]3CC[C@@]21C [5α-Cholest-8(14)-en-3β,15α-diol]
[2]; [3]
  IC50: 31 µM
[1]; [3]
  IC50: 3.7 µM

## CC(C)CCC[C@@H](C)[C@H]1CC(=O)C2=C3CC[C@H]4C[C@H](O)CC[C@]4(C)[C@H]3CC[C@@]21C [5α-Cholest-8(14)-en-3α-ol-15-one, 5α-cholest-8(14)-en-3α-ol-15-one]
[1]; L cell cultures, read-out: Concentrations Required for 50% Inhibition of Sterol Synthesis
  IC50: 0.5 µM

## CC[C@]12C3=CC[C@H]4CC(=O)CC[C@]4(C)[C@H]3CC[C@]1(C)[C@@H]([C@H](C)CCCC(C)C)C[C@@H]2O [14α-Ethyl-5α-cholest-7-en-15α-ol-3-one, 14α-ethyl-5α-cholest-7-en-15α-ol-3-one]
[1]; [3]
  IC50: < 0.1 µM
[1]
  inhibition at 0.1 µM: ~100%

## CCO[C@H]1CC[C@@]2(C)[C@@H](CC=C3[C@@H]2CC[C@]2(C)[C@@H]([C@H](C)CCCC(C)C)CC(=O)[C@@]32CC)C1 [3β-ethoxy-14α-ethyl-5α-cholest-7-en-15-one]
[1]; [3]
  IC50: > 22 µM
Serum cholesterol; day 0
  Serum Cholesterol (Mean ± S.E.M.): 89.1 ± 2.2 mg per 100 ml
Serum cholesterol; day 6
  Serum Cholesterol (Mean ± S.E.M.): 77.3 ± 2.1 mg per 100 ml
Serum cholesterol; day 10
  Serum Cholesterol (Mean ± S.E.M.): 80.1 ± 2.3 mg per 100 ml
Serum cholesterol; day 15
  Serum Cholesterol (Mean ± S.E.M.): 78.5 ± 3.3 mg per 100 ml
Serum cholesterol; day 21
  Serum Cholesterol (Mean ± S.E.M.): 73.1 ± 2.3 mg per 100 ml
Serum cholesterol; day 27
  Serum Cholesterol (Mean ± S.E.M.): 66.8 ± 2.6 mg per 100 ml
Serum cholesterol; 5 mg s.c. once a day, day 6
  % Reduction (relative to triolein-treated rats): 4.8%
Serum cholesterol; 5 mg s.c. once a day, day 10
  % Reduction (relative to triolein-treated rats): 3.4%
Serum cholesterol; 5 mg s.c. once a day, day 15
  % Reduction (relative to triolein-treated rats): 3.8%
Serum cholesterol; 5 mg s.c. once a day, day 21
  % Reduction (relative to triolein-treated rats): 11.5%
Serum cholesterol; 5 mg s.c. once a day, day 27
  % Reduction (relative to triolein-treated rats): 18.3%
Serum cholesterol; 5 mg s.c. once a day, day 27 vs. day 0
  percentage reduction in serum cholesterol levels, mean value (S.E.M.): 25.0

## CC[C@]12C3=CC[C@H]4C[C@@H](O)CC[C@]4(C)[C@H]3CC[C@]1(C)[C@@H]([C@H](C)CCCC(C)C)C[C@@H]2O [14α-Ethyl-5α-cholest-7-en-3β,15α-diol, 14α-ethyl-5α-cholest-7-en-3β,15α-diol]
[2]; [3]
  IC50: 0.06 µM
[2]; [4]
  IC50: 0.06 µM
[1]; [4]
  IC50: 0.05 µM

## CCCC[C@]12C3=CC[C@H]4C[C@@H](O)CC[C@]4(C)[C@H]3CC[C@]1(C)[C@@H]([C@H](C)CCCC(C)C)C[C@H]2O [14α-n-Butyl-5α-cholest-7-en-3β,15β-diol, 14α-n-butyl-5α-cholest-7-en-3β,15β-diol]
[1]; [3]
  IC50: 4.4 µM

## CCO[C@H]1CC[C@@]2(C)[C@@H](CC=C3[C@@H]2CC[C@]2(C)[C@@H]([C@H](C)CCCC(C)C)CC(O)[C@@]32CC)C1 (stereo partly drawn) [3β-Ethoxy-14α-ethyl-5α-cholest-7-en-15-ol]
[2]; [3]
  IC50: 4.3 µM
[1]; [3]
  IC50: 0.7 µM

## CCCCCCCCCCCCCCCC(=O)O[C@H]1CC[C@@]2(C)[C@@H](CC=C3[C@@H]2CC[C@]2(C)[C@@H]([C@H](C)CCCC(C)C)C[C@H](O)[C@@]32CC)C1 [3β-hexadecanoyloxy-14α-ethyl-5α-cholest-7-en-15α-ol]
[1]; [3]
  IC50: 7 µM

## CCC[C@@]12C(=O)C[C@H]([C@H](C)CCCC(C)C)[C@@]1(C)CC[C@H]1C2=CC[C@H]2C[C@@H](O)CC[C@@]21C [14α-n-propyl-5α-cholest-7-en-3β-ol-15-one]
[1]; [3]
  IC50: 3.4 µM

## CC(C)CCC[C@@H](C)[C@H]1C[C@H](O)[C@@H]2C3=CC[C@H]4CC(=O)CC[C@]4(C)[C@H]3CC[C@]12C [5α,14β-Cholest-7-en-15α-ol-3-one, 5α,14β-cholest-7-en-15α-ol-3-one]
[1]; [3]
  IC50: 2 µM

## CC[C@]12C3=CC[C@H]4C[C@@H](O)CC[C@]4(C)[C@H]3CC[C@]1(C)[C@@H]([C@H](C)CCCC(C)C)C[C@H]2O [14α-Ethyl-5α-cholest-7-en-3β,15β-diol, 14α-ethyl-5α-cholest-7-en-3β,15β-diol]
[2]; [3]
  IC50: 0.8 µM
[1]; [3]
  IC50: 0.4 µM

## CCC[C@]12C3=CC[C@H]4C[C@@H](O)CC[C@]4(C)[C@H]3CC[C@]1(C)[C@@H]([C@H](C)CCCC(C)C)C[C@H]2O [14α-n-Propyl-5α-cholest-7-en-3β,15β-diol, 14α-n-propyl-5α-cholest-7-en-3β,15β-diol]
[1]; [3]
  IC50: 4.1 µM

## CCCC[C@]12C3=CC[C@H]4C[C@@H](O)CC[C@]4(C)[C@H]3CC[C@]1(C)[C@@H]([C@H](C)CCCC(C)C)C[C@@H]2O [14α-n-Butyl-5α-cholest-7-en-3β,15α-diol, 14α-n-butyl-5α-cholest-7-en-3β,15α-diol]
[1]; [3]
  IC50: 5 µM

## CC[C@]12C3=CC[C@H]4C[C@@H](OC(C)=O)CC[C@]4(C)[C@H]3CC[C@]1(C)[C@@H]([C@H](C)CCCC(C)C)C[C@H]2O [3β-acetoxy-14α-ethyl-5α-cholest-7-en-15β-ol]
HMG-CoA reductase
  IC50: 0.13 µM
[1]; [3]
  IC50: 0.03 µM
